Source: US9266815B2, “Anti-metastatic agents predicated upon polyamine macrocyclic conjugates” (University of Central Florida Research Foundation, Inc., priority 2012, dated 2016)
“Also recorded” adds a separate entry of the source.

How the values were obtained:
L3.6pl cells [1] = test: Cytotoxicity IC50 and MTD determination in L3.6pl cells; format: cell-based; settings: for IC50 / L3.6pl MTD: 48 h at 37° C.; for IC50: 250 μM AG 24 h prior to drug addition; for L3.6pl MTD: maximum tolerated dose, 250 μM AG; for MTD higher than 0.6 μM (MTD of 44a): relative to parent 44a
Method: The MTD (Maximum tolerated dose) was determined for each of these compounds (Table III-2).
Note: the media must contain L-proline (2 μg/mL) for proper growth of the CHO-MG* cells. […] Cells in early to mid-log phase growth were used.
CHO and CHO-MG* cells were plated at 10,000 cells/mL. L3.6p1 cells were plated at 5,000 cells/mL. Drug solutions (10 μL per well) of appropriate concentration were added after an overnight incubation for each CHO cell line (90 μL of cell suspension).

CHO-MG* cells = test: Cytotoxicity (MTS cell growth) in CHO-MG* cells; format: cell-based, Chinese hamster; settings: for IC50: 48 h at 37° C., 1 mM AG 24 h prior to drug addition, triplicate
Source text: (§1) CHO cells were chosen along with a mutant cell line (CHO-MG*) to comment on how the synthetic conjugates gain access to the cells.^2c-e, 6 As discussed earlier, the CHO-MG* cell line is polyamine-transport deficient and represents a model for alternative modes of entry (other than PTS) including passive diffusion or use of another transporter. The CHO cell line on the other hand, represents cells with high polyamine transport activity.^7b, 10c A comparison of toxicity in these two CHO cell lines allowed for a screen that would detect selective use of the polyamine transporter. High utilization of the PTS would be very toxic to CHO cells. However, the CHO-MG* cells should be less sensitive to drugs which target the PTS.^2c-e, 6 Ultimately, a CHO-MG*/CHO IC50 ratio was determined to assess PTS selectivity. A high IC50 ratio (>>2) would be observed for PTS selective compounds.
(§2) CHO and CHO-MG* cells were grown in RPMI 1640 medium supplemented with 10% fetal calf serum and 1% penicillin/streptomycin. Note: the media must contain L-proline (2 μg/mL) for proper growth of the CHO-MG* cells. L3.6p1 cells were grown in RPMI 1640 medium supplemented with 10% FBS and 1% penicillin/streptomycin. All cells were grown at 37° C. under a humidified 5% CO2 atmosphere Aminoguanidine (1 mM for CHO and CHO-MG*, and 250 μM for L3.6p1) was added to the growth medium to prevent oxidation of the drugs by the enzyme (bovine serum amine oxidase) present in calf serum. Cells in early to mid-log phase growth were used.
(§3) Cell growth was assayed in sterile 96-well microtiter plates (Costar 3599, Corning, N.Y., USA). CHO and CHO-MG* cells were plated at 10,000 cells/mL. L3.6p1 cells were plated at 5,000 cells/mL. Drug solutions (10 μL per well) of appropriate concentration were added after an overnight incubation for each CHO cell line (90 μL of cell suspension). After exposure to the drug for 48 h, cell growth was determined by measuring formazan formation from 3-(4,5-dimethylthiazol-2-yl)-5-(3-carboxymethoxyphenyl)-2-(4-sulphenyl)-2H-tetrazolium, inner salt (MTS) using a SynergyMx BioTek microplate reader for absorbance ([…]) measurements.^23 A 4 h incubation period was used for the MTS assay in accordance with the manufacturer's protocol.^23

CHO cells = test: Cytotoxicity (MTS cell growth) in CHO cells; format: cell-based, Chinese hamster; settings: 48 h at 37° C., 1 mM AG 24 h prior to drug addition, triplicate
Source text: as §1, §2, §3

L3.6pl cells [2] = test: Wound healing assay (cell migration); format: cell-based, human; settings: for anti-migration ability relative to parent 44a (in words): dosed at 0.6 μM
Method: A wound healing assay was employed to evaluate the anti-migration properties of compounds 44a-b, 46a-b, and 47a-b in L3.6p1 cells. This involved growing a monolayer of L3.6p1 cells and then scraping the monolayer with a sterile pipet tip to create a cell free zone in the middle of the well. The experiment was run in 96-well plate format. Wound healing was measured by time-course imaging of each well using a computer-controlled microscope with an x,y,z stage which allowed for reproducible imaging over time. Each drug was evaluated for its dose-dependent inhibition of cell migration. Each compound was evaluated at its own MTD in order to avoid cytotoxic effects which are well known to bias migration studies.^37a In addition, each compound was also tested at the MTD of 44a (Motu33) in order to directly compare the potency of these compounds at the same concentration.
Taking pictures of each wound needed to be done under a 2.5× objective in order to view ˜95% of each well. […] This problem was alleviated through the use of the ImageJ software.^47 This software allowed for enhancing the contrast between areas which were occupied by cells versus areas devoid of cells. In this regard, the software was able to accurately define the edges of each boundary. These capabilities then allowed for accurate area calculations which are seen in Table 3.
Anti-migratory properties were assayed in 96-well microtiter plates (Costar 3599, Corning, N.Y., USA). A stock suspension of L3.6p1 cells (5.5×10^5 cells/mL) was prepared. L3.6p1 cells (90 μL of stock/well) were plated and allowed to grow to a confluent monolayer (48 h). Each well was then scraped with a 1 μL sterile pipet tip, photographed with a Zeiss Stemi Microscope (2.5× objective) (time=0), and then allowed to incubate for an additional 48 h period (time=48 h). Over this 48 h period, the untreated control migrated to fill 50% of the original wound. At time zero, the respective drug solutions (10 μL) were added and cell migration monitored after 48 h incubation at 37° C. with 5% CO2. After drug exposure for 48 h, respective time=48 h photographs were taken by the Zeiss Stemi Microscope. These pictures (time=0 and time=48 h) were then compared and analyzed through the use of ImageJ software^47 by calculating the average area invaded by L3.6p1 cells.

[3] = tested on: human pancreatic cancer L3.6p1 cells; test: Orthotopic mouse model, liver micrometastases; format: in vivo
Method: In one embodiment, the cancer is breast cancer. In another embodiment, the cancer is pancreatic cancer. […] The control was saline solution. The respective drugs (44a and 45) were dosed at their respective maximum tolerated dose (MTD).

MDA-MB-231 cells = settings: cited from earlier work
yeast cells = settings: 60 μM; cited from earlier work
[4] = tested on: MDA-231 breast carcinoma cells; settings: cited from earlier work
[5] = tested on: original CHO-MG line and CHO; settings: reported earlier (ref 2f); cited from earlier work
[6] = tested on: pancreatic tumor (L3.6p1 cells); test: Mouse pancreatic tumor model, tumor size; format: in vivo; settings: for tumor volume size: versus untreated control, preliminary data not shown
Source text: Further, the present inventors have found a dramatic increase in the therapeutic window available to these new agents relative to the parent compound 44a. These large carbocycles (e.g., the macrocyclic core) and carbocycle-alkyl groups (e.g., cyclopentadecyl-CH2— is preferred) represent a new N-substituent which imparts the unique properties of anti-migration activity and lower toxicity. Advantageously, the compounds described herein may be administered alone or in combination with known and/or new therapies (e.g., other chemotherapeutic agents or radiation) to help treat or prevent the spread of primary tumors and allow time for the intervention (e.g., other chemotherapeutic) to work on the primary tumor.
Thus, this represents an exciting unexpected discovery that not only can compounds of the present invention reduce metastasis, they reduce the tumor itself.

[7] = 2 μM (MTD of the conjugate), 48 h
[8] = Homo sapiens, 0.6 μM, 48 h, 250 μM AG

Row | Structure (SMILES) | L3.6pl MTD (L3.6pl cells [1]) | anti-migration property (in words) (L3.6pl cells [2]) | % Cell Migration (L3.6pl cells [2]; 0.6 μM, 48 h, 250 μM AG) | % Cell Migration (L3.6pl cells [2]; [7]) | IC50 (L3.6pl cells [1]; Homo sapiens, L3.6pl) | MTD higher than 0.6 μM (MTD of 44a) (L3.6pl cells [1]; L3.6pl) | IC50 (CHO-MG* cells; Cricetulus griseus, CHO-MG) | IC50 (CHO cells; Cricetulus griseus, CHO) | inhibition at 0.6 µM (L3.6pl cells [2]; [8]) | anti-migration ability relative to parent 44a (in words) (L3.6pl cells [2]) | tumor volume size [6] | other results
1 | NCCCNCCCNC1CCCCCCCCCCCCCC1 [Compound 46a, N(3-Aminopropyl)-N3-cyclopentadecylpropane-1,3-diamine] | 2.0 µM | have this anti-migration property | 38.2 (±2.5) % | 31.8 (±0.1) % | – | – | – | – | – | – | – | IC50 (L3.6pl cells [1]): 2.81 µM; IC50 (CHO-MG* cells): 5.95 µM; IC50 (CHO cells): 2.84 µM; % Cell Migration Inhibition (L3.6pl cells [2]; 0.6 μM, 48 h, 250 μM AG): 19.3 (±1.3) %; % Cell Migration Inhibition (L3.6pl cells [2]; [7]): 32.9 (±0.1) %
2 | NCCCCNCCCCNCC1CCCCCCCCCCCCCC1 [Compound 47b, N^1-(4-aminobutyl)-N^4-(cyclopentadecylmethyl)butane-1,4-diamine] | 40 µM | – | 33.4 (±1.8) % | – | 48.7 µM | > 60 fold | 45.5 µM | 47.8 µM | 29.6% | dramatic increase in anti-migration ability | – | % Cell Migration (L3.6pl cells [2]; 40 μM (MTD of the conjugate), 48 h): 25.9 (±2.1) %; inhibition at 40 µM (L3.6pl cells [2]; Homo sapiens, L3.6pl, 40 μM (MTD of the conjugate), 48 h): 45.3%
3 | CCN(CCCNCCCN)Cc1c2ccccc2cc2ccccc12 [AntNEt33] | – | – | – | – | – | – | – | – | – | – | – | anti-metastatic properties in vivo ([3]; compared with dihydromotuporamine C): failed to mimic the anti-metastatic properties
4 | NCCCNCCCN1CCCCCCCCCCCCCC1 [Compound 44a, dihydromotuporamine C, reference compound] | 0.6 µM | – | 37.8 (±3.3) % | – | 0.99 µM | – | 2.96 µM | 2.9 µM | 20.3% | – | dramatic decreases in tumor volume size | degree of metastasis (liver micrometastases per slide) ([3]; dosed at MTD, control saline, FIG. 7): effective in reducing the degree of metastasis; anti-invasive properties (in words) (MDA-MB-231 cells): good anti-invasive properties; growth of yeast cells (yeast cells): fully inhibit the growth; CHO-MG*/CHO IC50 ratio (CHO-MG* cells; measure of PTS selectivity): 1; cytotoxicity (in words) [4]: highly cytotoxic; IC50 ratio in the original CHO-MG line and CHO [5]: 1
5 | NCCCNCCCNCC1CCCCCCCCCCCCCC1 [Compound 47a, N^1-(3-aminopropyl)-N^3-(cyclopentadecylmethyl)propane-1,3-diamine] | 80 µM | have this anti-migration property | 29.2 (±3.2) % | – | 89.4 µM | > 130 fold | 87.3 µM | 82.9 µM | 38.4% | highest inhibition; also recorded: dramatic increase in anti-migration ability; also recorded: significant improvement in anti-migration ability | dramatic decreases in tumor volume size | less toxic than the parent (44a) (L3.6pl cells [1]; relative to 44a): about 130 times; % Cell Migration (L3.6pl cells [2]; 80 μM (MTD of the conjugate), 48 h): 26.2 (±1.3) %; inhibition at 80 µM (L3.6pl cells [2]; Homo sapiens, L3.6pl, 80 μM (MTD of the conjugate), 48 h): 44.8%; tumor growth in vivo ([6]; mouse studies, preliminary): inhibit tumor growth in vivo
6 | NCCCCNCCCCNC1CCCCCCCCCCCCCC1 [Compound 46b, N^1-(4-Aminobutyl)-N^4-cyclopentadecylbutane-1,4-diamine] | 2.0 µM | have this anti-migration property | 32.5 (±4.3) % | 31.6 (±0.5) % | 2.82 µM | – | 5.18 µM | 4.53 µM | 31.4% | – | – | inhibition at 2 µM (L3.6pl cells [2]; Homo sapiens, L3.6pl, 2 μM (MTD of the conjugate), 48 h): 33.4%
